What was measured:
[1] = target: T1, Human recombinant dopamine D3 receptor (Homo sapiens, UniProt P35462); assay: Measurement of affinity for dopamine D3 receptor ([3H]spiperone binding); conditions: [3H]spiperone 0.8 nM, CHO cell line, 60 min at 27° C.
T1 construct: purchased Euroscreen; host or cells: CHO cell line
Method: (§1) Human recombinant dopamine D2 and D3 receptors, which were expressed in CHO cell lines, respectively, were purchased from PerkinElmer and Euroscreen, respectively.
(§2) 50 mM Tris-HCl (pH 7.4) containing […] and 1 mM EDTA was used as a buffer solution for the measurement of affinity for dopamine D2 receptor. 50 mM Tris-HCl (pH 7.4) containing 5 mM MgCl2, 5 mM EDTA, 5 mM KCl, 1.5 mM CaCl2 and 120 mM NaCl was used as a buffer solution for the measurement of affinity for dopamine D3 receptor. For measurement of non-specific binding, 10 μM haloperidol (haloperidol) was used.

[2] = target: 5-HT7 receptor (Homo sapiens, UniProt P34969); assay: Serotonin receptor binding experiment, 5-HT7; design: species or system human or rat; conditions: [3H]LSD 3 nM, 90 min at 27° C.; read-out: Receptor affinity (IC50, nM) 5-HT7
Method: (§3) The measurement of affinity for serotonin 5-HT receptor family was performed according to the experimental conditions as specified in Table 2 below using the method same as in Experimental Example 1 above.

[3] = target: T2, human recombinant dopamine D4.2 receptor (Homo sapiens, UniProt P21917, DEL265-296); assay: Measurement of affinity for dopamine D4 receptor ([3H]YM-09151-2 binding); conditions: [3H]YM-09151-2 0.1 nM, receptor expressed in CHO-K1 cells, 120 min at 25° C.
T2 construct: purchased PerkinElmer Life and Analytical Sciences, USA; host or cells: CHO-K1 cells
T2 sequence (P21917 with tags, fused parts or gaps DEL265-296): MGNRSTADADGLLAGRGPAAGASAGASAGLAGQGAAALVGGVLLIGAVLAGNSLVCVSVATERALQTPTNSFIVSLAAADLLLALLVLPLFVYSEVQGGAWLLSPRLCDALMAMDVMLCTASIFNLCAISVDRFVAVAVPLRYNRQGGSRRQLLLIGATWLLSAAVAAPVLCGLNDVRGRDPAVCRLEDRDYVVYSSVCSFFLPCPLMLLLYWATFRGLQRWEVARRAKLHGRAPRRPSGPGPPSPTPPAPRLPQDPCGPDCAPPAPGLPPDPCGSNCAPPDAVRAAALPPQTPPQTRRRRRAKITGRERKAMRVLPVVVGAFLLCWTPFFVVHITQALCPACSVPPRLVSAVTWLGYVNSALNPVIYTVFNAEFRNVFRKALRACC
Method: The affinities of the compounds for dopamine D4 receptor were measured by using human recombinant dopamine D4.2 receptor (PerkinElmer Life and Analytical Sciences, USA) expressed in CHO-K1 cells, and [^3H]YM-09151-2 (PerkinElmer) was used as a radioactive ligand.
50 mM Tris-HCl (pH 7.4) containing 120 mM NaCl, 5 mM KCl, 5 mM MgCl2 and 1 mM EDTA was used as a buffer solution for the analysis of receptor binding. [^3H] YM-09151-2 binding reactions were performed in a 96-well plate format.
For drug screening, a reaction mixture with a final volume of 0.25 mL was prepared by mixing a compound of the present invention, D4 receptor membrane (43 μg/well), [^3H] YM-09151-2 (0.1 nM), 50 mM Tris-HCl (pH 7.4) and the like. The reaction mixture was incubated for 120 min at 25° C., and then promptly passed through Wallac GF/C glass fiber filter (Wallac, Finland), which was already wetted in 0.5% PEI, by using Inotech harvester (Inotech) to terminate the reaction, and then washed with cold 50 mM Tris-HCl buffer solution. The filter was then covered with MeltiLex, sealed in a sample bag, and then dried in an oven. The radioactivity retained in the filter was finally counted using MicroBeta Plus, Wallac.
The affinity (IC50) of a compound for the receptor was calculated via nonlinear regression analysis of sigmoidal dose-response equation with the data obtained from three independent experiments (GraphPad Prism Program, San Diego, USA), which are carried out using 7-8 different concentrations of the compound in duplicate. Nonspecific binding was measured in the presence of 10 μM clozapine.

[4] = target: T3, Human recombinant dopamine D2 receptor (Homo sapiens, UniProt P14416); assay: Measurement of affinity for dopamine D2 receptor ([3H]spiperone binding)
T3 construct: purchased PerkinElmer; host or cells: CHO cell line
Method: as §1, §2

[5] = target: 5-HT6 receptor (Homo sapiens, UniProt P50406); assay: Serotonin receptor binding experiment, 5-HT6; design: species or system human or rat; conditions: [3H]LSD 1.8 nM, 60 min at 37° C.; read-out: Receptor affinity (IC50, nM) 5-HT6
Method: as §3

[6] = target: 5-HT2A receptor (Homo sapiens, UniProt P28223); assay: Serotonin receptor binding experiment, 5-HT2A; design: species or system human or rat; conditions: [3H]ketanserin 1 nM, 15 min at 37° C.; read-out: Receptor affinity (IC50, nM) 5-HT2A
Method: as §3

[7] = target: T4, 5-HT1A receptor (Homo sapiens, UniProt P08908); assay: Serotonin receptor binding experiment, 5-HT1A; design: species or system human or rat; conditions: [3H]8-OH-DPAT 0.5 nM, 60 min at 27° C.; read-out: Receptor affinity (IC50, nM) 5-HT1A
T4 sequence (P08908 1-422): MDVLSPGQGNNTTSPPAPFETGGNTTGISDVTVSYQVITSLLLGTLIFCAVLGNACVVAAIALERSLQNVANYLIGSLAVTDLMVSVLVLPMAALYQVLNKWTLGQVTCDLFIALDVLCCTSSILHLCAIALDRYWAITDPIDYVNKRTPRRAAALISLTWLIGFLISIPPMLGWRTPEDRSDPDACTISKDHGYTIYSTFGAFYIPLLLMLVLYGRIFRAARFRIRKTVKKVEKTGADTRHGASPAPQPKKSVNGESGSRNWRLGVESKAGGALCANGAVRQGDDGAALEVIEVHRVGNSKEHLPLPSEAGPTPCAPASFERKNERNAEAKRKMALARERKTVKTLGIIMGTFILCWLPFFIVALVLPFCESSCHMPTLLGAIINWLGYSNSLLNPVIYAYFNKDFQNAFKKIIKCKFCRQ
Method: as §3

[8] = target: T5, 5-HT2C receptor (Homo sapiens, UniProt P28335); assay: Serotonin receptor binding experiment, 5-HT2C; design: species or system human or rat; conditions: [3H]Mesulergine 1 nM, 30 min at 37° C.; read-out: Receptor affinity (IC50, nM) 5-HT2C
T5 sequence (P28335 33-458): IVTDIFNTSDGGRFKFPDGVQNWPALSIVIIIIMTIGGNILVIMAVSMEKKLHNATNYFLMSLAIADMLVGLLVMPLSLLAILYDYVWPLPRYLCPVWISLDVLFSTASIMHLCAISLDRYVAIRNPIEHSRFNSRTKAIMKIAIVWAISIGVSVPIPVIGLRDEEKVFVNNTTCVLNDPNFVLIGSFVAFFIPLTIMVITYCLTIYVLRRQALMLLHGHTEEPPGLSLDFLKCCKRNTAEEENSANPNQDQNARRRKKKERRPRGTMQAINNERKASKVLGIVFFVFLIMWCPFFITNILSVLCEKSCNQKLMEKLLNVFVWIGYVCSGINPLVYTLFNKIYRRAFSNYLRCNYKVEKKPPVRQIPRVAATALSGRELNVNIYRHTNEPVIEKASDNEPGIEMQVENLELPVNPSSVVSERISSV
Method: as §3

[9] = tested on: rotarod deficit in mice; assay: Rotarod deficit in mice; format: in vivo; conditions: ip
Method: (§4) Each mouse was administered with a test drug, and then placed on a 1 inch diameter knurled plastic rod rotating at 6 rpm (Ugo-Basile, Milano, Italy), and the rotarod deficit (%) was obtained by counting the number of mice fallen from the rotating rod within 1 min at 30, 60, 90, and 120 min after the administration of the drug.

[10] = tested on: apomorphine-induced cage climbing in mice; assay: Apomorphine-induced climbing behavior in mice; format: in vivo; conditions: ip 30 min prior to apomorphine (1 mg/kg, sc); for ED50: Mus musculus, read-out: Inhibitory effects on apomorphine-induced climbing behavior ED50 (mg/kg, ip)
Method: When mice were treated with apomorphine (1 mg/kg, sc), a potent dopamine receptor agonist, and were put into cylindrical cages (diameter, 12 cm/height, 14 cm) with the floor and wall consisting of metal bars and covered with a lid, they begin to perform repeatedly a psychotic behavior of ‘cage climbing’. Their climbing behaviors were monitored every 10 min for 30 min and scored by 4-point rating scale (0˜3 points) depending on the extent of the behavior (Costentin, J. et al., Nature 1975, 257, 405-7; Protais, P. et al., Psychopharmacology 1976, 50, 1-6).
The compounds were injected intraperitoneally into mice 30 min prior to apomorphine administration. The inhibitory effects of the compounds against control group were measured and each ED50 was calculated therefrom.

[11] = Rotarod deficit in mice; format: in vivo; conditions: mouse, in vivo; mice, ip, rod rotating at 6 rpm, 30-120 min after administration
Method: as §4

T3 sequence (P14416 whole entry): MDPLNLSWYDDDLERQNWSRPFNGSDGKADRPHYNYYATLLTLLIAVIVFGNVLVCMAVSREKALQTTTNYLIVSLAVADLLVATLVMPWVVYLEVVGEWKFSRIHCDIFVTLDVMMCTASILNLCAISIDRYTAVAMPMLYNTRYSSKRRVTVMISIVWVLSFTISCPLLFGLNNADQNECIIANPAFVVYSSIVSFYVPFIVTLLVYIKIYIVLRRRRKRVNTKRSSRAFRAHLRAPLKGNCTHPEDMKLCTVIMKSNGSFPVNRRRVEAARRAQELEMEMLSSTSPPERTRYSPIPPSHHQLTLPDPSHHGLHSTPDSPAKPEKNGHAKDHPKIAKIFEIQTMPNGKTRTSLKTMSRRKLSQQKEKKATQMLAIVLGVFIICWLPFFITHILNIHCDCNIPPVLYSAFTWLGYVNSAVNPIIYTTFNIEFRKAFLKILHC
5-HT6 receptor, sequence (P50406 whole entry): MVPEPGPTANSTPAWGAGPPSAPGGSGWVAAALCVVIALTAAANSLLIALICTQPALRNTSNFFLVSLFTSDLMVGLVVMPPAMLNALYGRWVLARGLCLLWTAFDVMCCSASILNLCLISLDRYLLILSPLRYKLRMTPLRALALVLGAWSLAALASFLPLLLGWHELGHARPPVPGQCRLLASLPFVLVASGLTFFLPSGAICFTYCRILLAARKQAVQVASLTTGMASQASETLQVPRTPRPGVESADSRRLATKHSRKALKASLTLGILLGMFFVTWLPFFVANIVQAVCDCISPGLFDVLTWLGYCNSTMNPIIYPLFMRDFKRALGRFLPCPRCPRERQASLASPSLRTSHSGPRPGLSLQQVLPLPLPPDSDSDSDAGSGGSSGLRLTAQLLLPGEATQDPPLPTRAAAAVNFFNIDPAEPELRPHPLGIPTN
T1 sequence (P35462 whole entry): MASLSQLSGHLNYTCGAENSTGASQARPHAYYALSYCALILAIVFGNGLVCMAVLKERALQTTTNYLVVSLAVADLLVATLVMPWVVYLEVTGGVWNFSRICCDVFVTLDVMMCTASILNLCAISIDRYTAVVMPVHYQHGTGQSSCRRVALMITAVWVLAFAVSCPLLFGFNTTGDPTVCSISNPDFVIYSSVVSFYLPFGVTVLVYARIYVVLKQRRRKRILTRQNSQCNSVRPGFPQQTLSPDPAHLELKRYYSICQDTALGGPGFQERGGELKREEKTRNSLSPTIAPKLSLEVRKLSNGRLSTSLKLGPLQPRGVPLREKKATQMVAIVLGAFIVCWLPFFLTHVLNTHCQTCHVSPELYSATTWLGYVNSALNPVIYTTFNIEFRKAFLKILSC
5-HT2A receptor, sequence (P28223 whole entry): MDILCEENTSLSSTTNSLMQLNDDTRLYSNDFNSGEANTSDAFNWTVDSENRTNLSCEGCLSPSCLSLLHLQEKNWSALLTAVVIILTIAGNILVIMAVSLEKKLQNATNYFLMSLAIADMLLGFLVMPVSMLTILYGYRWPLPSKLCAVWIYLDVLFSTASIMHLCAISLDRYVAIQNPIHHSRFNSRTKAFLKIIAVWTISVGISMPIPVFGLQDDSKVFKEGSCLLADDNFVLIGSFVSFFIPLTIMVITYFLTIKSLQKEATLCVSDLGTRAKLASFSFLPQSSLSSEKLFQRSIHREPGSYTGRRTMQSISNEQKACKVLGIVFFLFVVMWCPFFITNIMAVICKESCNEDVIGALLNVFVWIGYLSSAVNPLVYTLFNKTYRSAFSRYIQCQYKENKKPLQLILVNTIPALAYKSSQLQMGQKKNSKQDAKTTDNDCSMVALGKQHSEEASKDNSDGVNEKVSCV
5-HT7 receptor, sequence (P34969 whole entry): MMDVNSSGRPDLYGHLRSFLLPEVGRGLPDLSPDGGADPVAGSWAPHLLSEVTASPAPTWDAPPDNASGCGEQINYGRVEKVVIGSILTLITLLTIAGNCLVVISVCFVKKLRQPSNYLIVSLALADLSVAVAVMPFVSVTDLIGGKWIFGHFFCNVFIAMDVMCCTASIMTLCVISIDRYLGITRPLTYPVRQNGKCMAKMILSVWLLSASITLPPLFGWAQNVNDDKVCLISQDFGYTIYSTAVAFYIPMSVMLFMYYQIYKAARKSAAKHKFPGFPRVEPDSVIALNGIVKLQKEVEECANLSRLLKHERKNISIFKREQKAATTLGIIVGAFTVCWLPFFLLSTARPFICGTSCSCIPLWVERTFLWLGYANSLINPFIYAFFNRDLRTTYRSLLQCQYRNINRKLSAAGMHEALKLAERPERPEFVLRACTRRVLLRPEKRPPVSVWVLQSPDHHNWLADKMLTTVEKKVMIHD

SMILES: CCCc1cc(CCCN2CCN(c3ccc(Cl)c(Cl)c3)CC2)n(-c2ccccc2)n1 [Compound 163, 1-(3,4-dichlorophenyl)-4-(3-(1-phenyl-3-propyl-1H-pyrazol-5-yl)propyl)piperazine]
- IC50 [1]: 420 nM
- IC50 [2]: 651 nM
- IC50 [3]: 0.0077 µM
- affinity for D2 receptors (in words) [4]: extremely poor affinity
- IC50 ([4]; [3H]spiperone 0.5 nM, CHO cell line, 60 min at 27° C.): 1060 nM
- IC50 [5]: 617 nM
- IC50 [6]: 45 nM
- IC50 [7]: 494 nM
- IC50 [8]: 558 nM

SMILES: CCCc1cc(CCCN2CCN(c3ccc(Cl)cc3)CC2)n(-c2ccccc2)n1 [Compound 157, 1-(4-chlorophenyl)-4-(3-(1-phenyl-3-propyl-1H-pyrazol-5-yl)propyl)piperazine]
- rotarod deficit TD50 as times of ED50 for antipsychotic efficacy ([9]; mouse, in vivo): 2.2-5 times
- ED50 [10]: 8.8 to 14.5 mg/kg
- Inhibitory effects on apomorphine-induced climbing behavior ED50 (mg/kg, ip) [10]: 14.5 mg/kg

SMILES: CN1CCN(C2=Nc3cc(Cl)ccc3Nc3ccccc32)CC1 [clozapine, reference compound]
- rotarod deficit TD50 as times of ED50 for antipsychotic efficacy ([9]; mice): almost same
- TD50 [11]: 3.9 mg/kg
- ED50 [10]: 4 mg/kg
